What is called logD is the decadic logarithm of the distribution of all forms, ionised or not, between an organic phase and buffer at a given pH. A high value points to higher lipophilicity. For orientation: IC50 means the concentration that gives 50% inhibition.

The structures appear in SMILES notation. Active and inactive are the calls of the source. No cut-off for these calls is given here.

These results are taken from ChEMBL document CHEMBL2057206, “Symmetrical approach of spiro-pyrazolidinediones as acetyl-CoA carboxylase inhibitors” (Bioorg Med Chem Lett, 2012).

A short description of series [1]: Lipophilicity, log D of the compound by HPLC analysis at pH 7. It counts as physicochemical. Particulars: buffer.
Series [2] is described as follows: Clearance in human liver microsomes assessed per mg of protein. It counts as ADME, Microsome. The following applies: read-out: CLH. (Liver microsomes are vesicles of endoplasmic reticulum, rich in cytochrome P450 enzymes.)
Series [3] has as its target Acetyl-CoA carboxylase 2 (Homo sapiens, UniProt O00763). As to the kind of experiment: Inhibition of human ACC2 using acetyl-coA as substrate incubated for 60 mins prior to substrate addition measured after 20 mins by malachite green assay.
Series [4] deals with Acetyl-CoA carboxylase 1 (Homo sapiens, UniProt Q13085). As to the kind of experiment: Inhibition of human ACC1 using acetyl-coA as substrate incubated for 60 mins prior to substrate addition measured after 20 mins by malachite green assay.
In series [5] the test system is Rattus norvegicus. As to the kind of experiment: Antidyslipidemic activity in po dosed Wistar fatty rat assessed as reduction in respiratory quoteint after 3 hrs. Format: functional, organism-based.
The test system of series [6] is Rattus norvegicus. As to the kind of experiment: Antidyslipidemic activity in Wistar fatty rat assessed as reduction in respiratory quoteint at 1 mg/kg, po after 3 hrs. It counts as functional, organism-based. Set-up: dose 1 mg/kg.
Series [7] can be described thus: Inhibition of rat ACC2.
Series [8] addresses Acetyl-CoA carboxylase 1 (Rattus norvegicus, UniProt P11497). Briefly: Inhibition of rat ACC1.

Acetyl-CoA carboxylase 2, sequence (O00763 whole entry): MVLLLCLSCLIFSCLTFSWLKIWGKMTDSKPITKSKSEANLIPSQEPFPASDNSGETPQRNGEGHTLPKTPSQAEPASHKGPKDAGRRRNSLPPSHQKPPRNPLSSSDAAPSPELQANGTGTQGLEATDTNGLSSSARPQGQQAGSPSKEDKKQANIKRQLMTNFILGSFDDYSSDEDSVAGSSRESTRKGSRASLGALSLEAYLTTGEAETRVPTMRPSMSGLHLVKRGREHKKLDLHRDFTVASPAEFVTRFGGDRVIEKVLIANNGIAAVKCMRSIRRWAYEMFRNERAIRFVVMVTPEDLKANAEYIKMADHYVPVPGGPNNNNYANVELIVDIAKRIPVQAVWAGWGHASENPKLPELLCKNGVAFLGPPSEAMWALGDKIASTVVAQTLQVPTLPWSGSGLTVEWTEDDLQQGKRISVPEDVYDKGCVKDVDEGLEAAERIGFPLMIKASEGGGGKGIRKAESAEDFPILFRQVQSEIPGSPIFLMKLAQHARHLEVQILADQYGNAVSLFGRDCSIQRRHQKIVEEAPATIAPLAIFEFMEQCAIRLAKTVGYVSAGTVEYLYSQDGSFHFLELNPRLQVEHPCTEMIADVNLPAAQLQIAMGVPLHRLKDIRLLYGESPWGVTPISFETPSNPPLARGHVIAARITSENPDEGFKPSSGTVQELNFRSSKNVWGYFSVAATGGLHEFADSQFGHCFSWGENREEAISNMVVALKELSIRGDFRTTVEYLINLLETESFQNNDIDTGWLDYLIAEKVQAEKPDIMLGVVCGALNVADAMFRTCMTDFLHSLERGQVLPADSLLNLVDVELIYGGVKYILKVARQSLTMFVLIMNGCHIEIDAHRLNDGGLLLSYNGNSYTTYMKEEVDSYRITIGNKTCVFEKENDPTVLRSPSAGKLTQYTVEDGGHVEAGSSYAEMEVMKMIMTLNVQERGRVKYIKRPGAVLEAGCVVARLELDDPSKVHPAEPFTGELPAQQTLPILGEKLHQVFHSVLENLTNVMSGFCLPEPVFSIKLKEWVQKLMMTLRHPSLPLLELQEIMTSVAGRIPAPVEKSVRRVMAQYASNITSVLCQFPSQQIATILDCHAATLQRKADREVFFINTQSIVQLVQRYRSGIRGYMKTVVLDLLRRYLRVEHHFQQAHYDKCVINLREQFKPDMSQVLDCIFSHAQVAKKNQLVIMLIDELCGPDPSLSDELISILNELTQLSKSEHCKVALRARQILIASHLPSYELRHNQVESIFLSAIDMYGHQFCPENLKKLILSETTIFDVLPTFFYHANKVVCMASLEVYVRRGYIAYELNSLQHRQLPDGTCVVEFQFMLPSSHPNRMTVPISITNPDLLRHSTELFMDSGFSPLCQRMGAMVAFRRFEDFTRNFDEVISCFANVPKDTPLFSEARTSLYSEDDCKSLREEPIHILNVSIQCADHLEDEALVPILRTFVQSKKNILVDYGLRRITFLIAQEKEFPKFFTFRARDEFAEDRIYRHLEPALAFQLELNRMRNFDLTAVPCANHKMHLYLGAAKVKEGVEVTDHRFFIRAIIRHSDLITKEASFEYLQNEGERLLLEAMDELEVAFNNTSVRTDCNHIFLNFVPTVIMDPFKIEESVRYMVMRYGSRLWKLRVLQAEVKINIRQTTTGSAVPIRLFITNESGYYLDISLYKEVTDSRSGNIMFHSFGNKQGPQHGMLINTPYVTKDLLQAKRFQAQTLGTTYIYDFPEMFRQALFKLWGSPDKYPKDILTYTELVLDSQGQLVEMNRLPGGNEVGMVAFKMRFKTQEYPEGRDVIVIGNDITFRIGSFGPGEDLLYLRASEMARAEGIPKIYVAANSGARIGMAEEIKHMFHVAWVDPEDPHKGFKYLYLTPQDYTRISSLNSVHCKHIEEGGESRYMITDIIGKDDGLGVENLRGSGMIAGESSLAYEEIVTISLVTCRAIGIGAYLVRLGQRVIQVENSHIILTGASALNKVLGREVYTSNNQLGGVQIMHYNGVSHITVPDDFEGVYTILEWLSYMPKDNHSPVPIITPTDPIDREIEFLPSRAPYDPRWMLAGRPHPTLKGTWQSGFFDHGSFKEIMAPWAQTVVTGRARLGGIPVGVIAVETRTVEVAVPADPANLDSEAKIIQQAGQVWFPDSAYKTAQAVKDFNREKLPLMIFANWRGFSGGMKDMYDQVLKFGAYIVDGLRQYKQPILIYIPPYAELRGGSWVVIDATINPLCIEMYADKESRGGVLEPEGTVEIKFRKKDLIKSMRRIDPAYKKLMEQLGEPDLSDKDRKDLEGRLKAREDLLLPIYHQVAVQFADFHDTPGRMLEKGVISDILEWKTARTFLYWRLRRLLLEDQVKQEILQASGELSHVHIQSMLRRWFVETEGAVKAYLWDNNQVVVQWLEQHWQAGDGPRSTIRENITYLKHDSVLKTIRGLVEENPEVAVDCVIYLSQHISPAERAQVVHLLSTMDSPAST

In the case of `CCNC(=O)Nc1sc2ccccc2c1C(=O)N1CCC(N2CCCC3(C2)C(=O)N(C)N(C)C3=O)CC1`, the logD in series [1] was found to be 2.03. Further, the microsomal CLint in series [2] turned out to be 12 µL/min/mg. For the same compound, the half-maximal inhibitory concentration (IC50) stood at 20 nM in series [3] and 120 nM in series [4].

On to `CCNC(=O)Nc1sc2ccccc2c1C(=O)N1CCC(N2CCCC3(C2)C(=O)N2CCCCCN2C3=O)CC1`, for which the pH-dependent lipophilicity (logD) in series [1] was 2.48. For the same compound, the microsomal CLint in series [2] came out at 100 µL/min/mg. Further, the concentration for half-maximal inhibition (IC50) was found to be 7.5 nM in series [3] and 43 nM in series [4].

In turn, `COc1cccc2c(C(=O)N3CCC(N4CCCC5(C4)C(=O)N4CCCCN4C5=O)CC3)c(NC(N)=O)sc12` displayed a log distribution coefficient (logD) in series [1] of 1.76. The microsomal CLint in series [2] stood at 15 µL/min/mg. Moreover, the figures for the concentration for half-maximal inhibition (IC50) in series [3] and in series [4] were 5.9 nM and 22 nM, respectively.

With `CCNC(=O)Nc1sc2ccccc2c1C(=O)N1CCC(N2CCCC3(C2)C(=O)N2CCCCN2C3=O)CC1`, the logD in series [1] was found to be 2.45. Further, the microsomal CLint in series [2] was found to be 18 µL/min/mg. Further, the half-maximal inhibitory concentration (IC50) in series [3] is 23 nM; in series [4], 130 nM.

`CNC(=O)Nc1sc2ccccc2c1C(=O)N1CCC(N2CCCC3(C2)C(=O)N2CCCCCN2C3=O)CC1` displayed a logD in series [1] of 2.14. The microsomal CLint in series [2] turned out to be 71 µL/min/mg. Further, the IC50 in series [3] came out at 8.7 nM; in series [4], 48 nM.

The compound `CCNC(=O)Nc1sc2ccccc2c1C(=O)N1CCC(N2CCCC3(C2)C(=O)N2CCCCCCN2C3=O)CC1` returned a logD in series [1] of 2.73. In addition, in series [2], the microsomal CLint amounted to 200 µL/min/mg. The half-inhibitory concentration (IC50) in series [3] was found to be 5.1 nM; in series [4] it was 22 nM.

`CCN1C(=O)C2(CCCN(C3CCN(C(=O)c4c(NC(=O)NC)sc5ccccc45)CC3)C2)C(=O)N1CC` registered a pH-dependent lipophilicity (logD) in series [1] of 2.33. Further, the microsomal CLint in series [2] is 120 µL/min/mg. The half-maximal inhibitory concentration (IC50) in series [3] was 8.1 nM; in series [4], 41 nM.

Regarding `CNC(=O)Nc1sc2ccccc2c1C(=O)N1CCC(N2CCCC3(C2)C(=O)N2CCCCN2C3=O)CC1`, in series [1], the logD was determined as 2.14. Further, the microsomal CLint in series [2] was determined as 12 µL/min/mg. The IC50 was 36 nM in series [3] and 200 nM in series [4].

`CCNC(=O)Nc1sc2ccccc2c1C(=O)N1CCC(N2CCCC3(C2)C(=O)N2CCCN2C3=O)CC1`: in series [1], the logD amounted to 1.93. The microsomal CLint in series [2] stood at 25 µL/min/mg. The concentration for half-maximal inhibition (IC50) in series [3] amounted to 33 nM; in series [4], 170 nM.

`CNC(=O)Nc1sc2c(OC)cccc2c1C(=O)N1CCC(N2CCCC3(C2)C(=O)N2CCCCN2C3=O)CC1`: the logD in series [1] was found to be 2.08. In addition, in series [2], the microsomal CLint amounted to 6 µL/min/mg. Moreover, the half-maximal inhibitory concentration (IC50) in series [3] came to 6.1 nM; in series [4], 25 nM.

The compound `CCNC(=O)Nc1sc2c(OC)cccc2c1C(=O)N1CCC(N2CCCC3(C2)C(=O)N2CCCCN2C3=O)CC1` gave a log distribution coefficient (logD) in series [1] of 2.33. Besides, the microsomal CLint in series [2] amounted to 35 µL/min/mg. Besides, the 50% inhibitory concentration (IC50) in series [3] came out at 4.9 nM; in series [7], 13 nM; in series [4], 21 nM; in series [8], 28 nM. Further, the Activity result in series [5] was “Dose-dependent effect”. Also, in series [6], the result was Active.
